What all share (type): biochemical
For assay [1], the target named is T1, EGFR (epidermal growth factor receptor) (Homo sapiens, UniProt P00533).
T1 construct: is purified from human A431 cell membranes (Sigma, St. Louis, MO, Cat.# E3641); purchased Sigma, St. Louis, MO E3641; host or cells: human A431 cell membranes (endogenous protein)
In words: Kinase Selectivity Assay EGF-R.

The target of assay [2] is T2, HER2 (human epidermal growth factor receptor-2) (Homo sapiens, UniProt P04626).
T2 construct: begins at amino acid 676 followed by the remainder of the HER2 cytoplasmic domain; polyhistidine (N)
T2 sequence (P04626 676-1255 limits assumed): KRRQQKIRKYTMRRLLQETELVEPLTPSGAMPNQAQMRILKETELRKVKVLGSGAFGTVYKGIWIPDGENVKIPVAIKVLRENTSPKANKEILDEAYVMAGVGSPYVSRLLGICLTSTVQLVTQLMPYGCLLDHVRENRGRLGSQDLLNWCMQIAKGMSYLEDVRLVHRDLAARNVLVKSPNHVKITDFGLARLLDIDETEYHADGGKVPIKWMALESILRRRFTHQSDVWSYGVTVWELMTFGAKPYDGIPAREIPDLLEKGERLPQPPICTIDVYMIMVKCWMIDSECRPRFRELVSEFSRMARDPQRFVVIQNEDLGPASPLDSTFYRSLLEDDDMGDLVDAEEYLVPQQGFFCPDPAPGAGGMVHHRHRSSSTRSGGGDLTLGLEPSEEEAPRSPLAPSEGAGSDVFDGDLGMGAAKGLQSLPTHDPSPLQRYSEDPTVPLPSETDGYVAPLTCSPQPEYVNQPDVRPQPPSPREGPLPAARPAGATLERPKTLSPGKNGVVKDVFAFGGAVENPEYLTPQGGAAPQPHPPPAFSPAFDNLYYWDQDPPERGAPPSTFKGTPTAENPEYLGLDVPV
As to the kind of experiment: Kinase Selectivity Assay HER2.

The target of assay [3] is T3, VEGF-R (vascular endothelial growth factor receptor-2) (Rattus norvegicus, UniProt O08775).
T3 construct: 6xHis (polyhistidine) (N)
T3 sequence (O08775 786-1343): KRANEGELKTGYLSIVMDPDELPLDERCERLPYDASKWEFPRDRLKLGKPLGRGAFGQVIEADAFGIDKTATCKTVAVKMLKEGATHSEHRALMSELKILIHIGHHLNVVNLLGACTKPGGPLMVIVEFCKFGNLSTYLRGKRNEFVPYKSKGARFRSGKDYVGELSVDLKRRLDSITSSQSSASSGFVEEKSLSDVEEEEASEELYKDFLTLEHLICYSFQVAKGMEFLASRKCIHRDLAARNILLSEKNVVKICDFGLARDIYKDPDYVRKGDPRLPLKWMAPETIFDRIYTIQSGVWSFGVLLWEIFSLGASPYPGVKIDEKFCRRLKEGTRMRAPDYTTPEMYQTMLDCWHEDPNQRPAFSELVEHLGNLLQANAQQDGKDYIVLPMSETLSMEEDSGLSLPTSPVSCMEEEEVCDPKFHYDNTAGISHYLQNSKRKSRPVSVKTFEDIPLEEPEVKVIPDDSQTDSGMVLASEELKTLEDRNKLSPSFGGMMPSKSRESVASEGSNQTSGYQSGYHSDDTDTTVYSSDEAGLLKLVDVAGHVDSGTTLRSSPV
In words: VEGF-R Screening Assay. To be noted: read-out: Kinase Assay (IC50 uM) VEGF-R. As for the experimental part: (§1) 70 µL of the kinase reaction mixture was dispensed into the well of a streptavidin coated FlashPlate™ (Cat. # SMP103, NEN, Boston, MA). Then 1 µL of test compound stock in 100% DMSO was added to the wells resulting in a final concentration of 1% DMSO in the reaction with a 100 µL final reaction volume. Next, soluble rat tyrosine kinase containing an N-terminal 6XHIS tag was diluted in 50 mM Tris-HCl pH=8.0, 0.1% BSA at a concentration of 5 ng per µL and 30 µL (150 ng enzyme per test well) was added to each well to initiate the reaction. The reaction was incubated for one hour at 30°C. At the end of the 1-hour incubation, the reaction was terminated by aspirating the reaction mixture from the plate and washing the wells twice with PBS containing 100 mM EDTA. The PLC1 biotinylated peptide substrate became immobilized on the Flashplate™ and the incorporation of ^33P-γ-ATP was measured by reading the plate on a scintillation counter. Inhibition of the enzymatic activity of the VEGF-R was measured by observing a reduced amount of ^33P-γ-ATP incorporated into the immobilized peptide. […]

A further assay concerns the target T4, CDK1:Cyclin-B (Homo sapiens, UniProt P06493).
T4 construct: purchased New England Biolabs, Beverly, MA 6020; host or cells: insect cells
In words: CDK1 Screening Assay. To be noted: read-out: Kinase Assay (IC50 uM) CDK1. Here is the method:
as §1, with “100 µl” for “100 µL”, “Next, CDK1:Cyclin-B protein” for “Next, soluble rat tyrosine kinase containing an N-terminal 6XHIS tag”, “of 1” for “of 5”, “30 µl (30ng” for “30 µL (150 ng”, “The histone-H1” for “The PLC1”, “of CDK1” for “of the VEGF-R”

Setting [4] is: read-out: Kinase Assay (IC50 uM) EGF-R.
Setting [5] is: read-out: Kinase Assay (IC50 uM) HER2 Kinase.
[6] abbreviates: Kinase Selectivity, Table 2, read-out: EGF-R IC50.

What is called IC50 is the concentration at which inhibition is half-maximal.

Like-named read-outs stand apart in the source and are kept apart here. Where only a bound is given, the exact number is not on record here.

T1 sequence (P00533 25-1210): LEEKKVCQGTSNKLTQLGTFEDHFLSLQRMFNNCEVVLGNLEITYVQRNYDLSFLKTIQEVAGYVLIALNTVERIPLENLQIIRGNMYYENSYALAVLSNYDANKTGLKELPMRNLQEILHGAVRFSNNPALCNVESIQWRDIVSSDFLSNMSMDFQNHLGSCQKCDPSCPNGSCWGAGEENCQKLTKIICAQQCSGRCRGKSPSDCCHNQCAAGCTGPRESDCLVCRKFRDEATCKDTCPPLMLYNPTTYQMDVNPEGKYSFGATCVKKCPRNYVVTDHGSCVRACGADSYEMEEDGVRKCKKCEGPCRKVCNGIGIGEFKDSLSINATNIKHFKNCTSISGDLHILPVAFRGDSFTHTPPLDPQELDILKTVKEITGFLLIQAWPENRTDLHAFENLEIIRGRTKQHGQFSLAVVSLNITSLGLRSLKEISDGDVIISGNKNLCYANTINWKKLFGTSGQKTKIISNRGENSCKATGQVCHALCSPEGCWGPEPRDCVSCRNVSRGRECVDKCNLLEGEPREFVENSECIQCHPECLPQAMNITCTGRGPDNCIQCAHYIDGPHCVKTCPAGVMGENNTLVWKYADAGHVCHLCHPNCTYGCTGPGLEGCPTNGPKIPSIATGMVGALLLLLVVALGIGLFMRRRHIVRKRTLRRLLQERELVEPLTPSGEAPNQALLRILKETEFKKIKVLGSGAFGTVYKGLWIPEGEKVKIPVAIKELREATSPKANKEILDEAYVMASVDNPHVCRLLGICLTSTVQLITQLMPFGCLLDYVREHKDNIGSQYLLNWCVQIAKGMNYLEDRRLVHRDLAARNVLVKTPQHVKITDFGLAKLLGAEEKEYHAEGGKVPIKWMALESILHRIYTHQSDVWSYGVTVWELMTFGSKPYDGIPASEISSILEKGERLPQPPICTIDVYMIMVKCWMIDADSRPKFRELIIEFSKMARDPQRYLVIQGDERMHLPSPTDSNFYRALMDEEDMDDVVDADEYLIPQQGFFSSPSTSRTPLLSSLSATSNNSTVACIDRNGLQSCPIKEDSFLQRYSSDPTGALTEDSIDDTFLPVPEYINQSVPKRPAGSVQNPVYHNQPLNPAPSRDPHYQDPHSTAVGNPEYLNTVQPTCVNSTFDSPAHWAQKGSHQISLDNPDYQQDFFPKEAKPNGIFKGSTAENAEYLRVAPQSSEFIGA
T4 sequence (P06493 whole entry): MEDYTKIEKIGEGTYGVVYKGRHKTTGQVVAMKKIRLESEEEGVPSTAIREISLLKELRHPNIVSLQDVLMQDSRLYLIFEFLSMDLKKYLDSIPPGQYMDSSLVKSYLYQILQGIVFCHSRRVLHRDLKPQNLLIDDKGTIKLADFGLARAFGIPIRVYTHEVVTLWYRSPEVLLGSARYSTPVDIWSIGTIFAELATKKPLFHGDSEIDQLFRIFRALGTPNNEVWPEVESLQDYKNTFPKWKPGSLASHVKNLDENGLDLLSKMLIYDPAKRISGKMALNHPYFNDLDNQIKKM
T4 sequence (P14635 whole entry partner): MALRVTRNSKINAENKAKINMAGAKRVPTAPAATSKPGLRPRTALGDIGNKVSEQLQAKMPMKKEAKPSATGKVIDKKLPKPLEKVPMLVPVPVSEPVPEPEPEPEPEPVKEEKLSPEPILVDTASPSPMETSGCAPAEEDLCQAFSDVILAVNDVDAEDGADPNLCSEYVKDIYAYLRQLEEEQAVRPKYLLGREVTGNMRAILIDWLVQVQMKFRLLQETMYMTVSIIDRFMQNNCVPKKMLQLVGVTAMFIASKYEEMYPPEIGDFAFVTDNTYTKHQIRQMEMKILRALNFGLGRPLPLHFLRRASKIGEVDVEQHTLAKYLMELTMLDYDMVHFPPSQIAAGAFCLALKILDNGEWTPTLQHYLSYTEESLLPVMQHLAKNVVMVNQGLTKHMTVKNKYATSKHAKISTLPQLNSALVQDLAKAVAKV

As to `Cc1ccsc1C(=O)n1nc(Nc2ccc(N3CCCS3(=O)=O)cc2)nc1N` [Cpd 116, N^3-[4-(1,1-dioxido-2-isothiazolidinyl)phenyl]-1-[(3-methyl-2-thienyl)carbonyl]-1H-1,2,4-triazole-3,5-diamine], in assay [1] (setting [4]), the IC50 was above 100 µM. `CNS(=O)(=O)c1ccc(Nc2nc(N)n(C(=O)c3sccc3C)n2)cc1` [Cpd 82, 4-[[5-amino-1-[(3-methyl-2-thienyl)carbonyl]-1H-1,2,4-triazol-3-yl]amino]-N-methyl-benzenesulfonamide]: the IC50 was 0.118 µM in assay [2] (setting [5]), 0.022 µM in assay [3] and above 100 µM in assay [1] (setting [4]). Take `Cc1ccsc1C(=O)n1nc(Nc2ccc(N3CCNC3=O)cc2)nc1N` [Cpd 113, 1-[4-[[5-amino-1-[(3-methyl-2-thienyl)carbonyl]-1H-1,2,4-triazol-3-yl]amino]phenyl]-2-imidazolidinone]: the IC50 in assay [1] (setting [4]) was above 10 µM. Take `Cc1ccccc1C(=O)n1nc(Nc2ccc(S(N)(=O)=O)cc2)nc1N` [Cpd 57, 4-[[5-amino-1-(2-methylbenzoyl)-1H-1,2,4-triazol-3-yl]amino]-benzenesulfonamide]: the IC50 in assay [3] is 0.191 µM; in assay [1] (setting [4]), above 100 µM. On the same counts, the results for `Cc1nc(C)c(C(=O)n2nc(Nc3ccc(S(N)(=O)=O)cc3)nc2N)s1` [Cpd 34, 4-[[5-amino-1-[(2,4-dimethyl-5-thiazolyl)carbonyl]-1H-1,2,4-triazol-3-yl]amino]-benzenesulfonamide] are 0.068 µM and above 100 µM. Consider `Nc1nc(Nc2ccc(S(=O)(=O)N3CCCCC3)cc2)nn1C(=O)c1cccs1` [Cpd 23, N^3-[4-(1-piperidinylsulfonyl)phenyl]-1-(2-thienylcarbonyl)-1H-1,2,4-triazole-3,5-diamine], for which the IC50 in assay [1] (setting [6]) was above 100 µM.

As to `CC(O)c1ccc(F)c(C(=O)n2nc(Nc3ccc(S(N)(=O)=O)cc3)nc2N)c1F` (stereo not shown) [Cpd 58, 4-[[5-amino-1-[2,6-difluoro-3-(1-hydroxyethyl)benzoyl]-1H-1,2,4-triazol-3-yl]amino]-benzenesulfonamide], in assay [1] (setting [4]), the IC50 is above 10 µM. On to `CCc1ccc(C(=O)n2nc(Nc3ccc(NS(C)(=O)=O)cc3)nc2N)s1` [Cpd 110, N-[4-[[5-amino-1-[(5-ethyl-2-thienyl)carbonyl]-1H-1,2,4-triazol-3-yl]amino]phenyl]-methanesulfonamide], for which the IC50 in assay [3] was 0.014 µM; on CDK1:Cyclin-B it was 0.022 µM; in assay [1] (setting [4]), above 10 µM. On the same counts, the results for `Nc1nc(Nc2ccc(S(N)(=O)=O)cc2)nn1C(=O)C1CCCCC1` [Cpd 39, 4-[[5-amino-1-(cyclohexylcarbonyl)-1H-1,2,4-triazol-3-yl]amino]-benzenesulfonamide] are 0.334 µM, 0.012 µM and above 100 µM. For the compound `Nc1ccc(F)c(C(=O)n2nc(Nc3ccc(S(N)(=O)=O)cc3)nc2N)c1F` [Cpd 55, 4-[[5-amino-1-(3-amino-2,6-difluorobenzoyl)-1H-1,2,4-triazol-3-yl]amino]-benzenesulfonamide], the IC50 in assay [3] worked out at 0.577 µM; in assay [1] (setting [4]), 16.1 µM. On to `Cc1cc(C)c(C(=O)n2nc(Nc3ccc(-n4ccnc4)cc3)nc2N)s1` [Cpd 92, 1-[(3,5-diinethyl-2-thienyl)carbonyl]-N^3-[4-(1H-imidazol-1-yl)phenyl]-1H-1,2,4-triazole-3,5-diamine], for which the IC50 in assay [1] (setting [4]) was above 100 µM. For the compound `Nc1nc(Nc2ccc(S(N)(=O)=O)cc2)nn1C(=O)c1c(F)cccc1F` [Cpd 1, 4-[[5-amino-1-(2,6-difluorobenzoyl)-1H-1,2,4-triazol-3-yl]amino]-benzenesulfonamide], the IC50 in assay [1] (setting [6]) was above 100 µM. For `Nc1nc(Nc2ccc(S(N)(=O)=O)cc2)nn1C(=O)c1ccsc1` [Cpd 30, 4-[[5-amino-1-(3-thienylcarbonyl)-1H-1,2,4-triazol-3-yl]amino]-benzenesulfonamide], the IC50 in assay [1] (setting [6]) was found to be 9.6 µM. For the compound `CC(C)(C)c1ccc(C(=O)n2nc(Nc3ccc(S(N)(=O)=O)cc3)nc2N)s1` [Cpd 51, 4-[[5-amino-1-[[5-(1,1-dimethylethyl)-2-thienyl]carbonyl]-1H-1,2,4-triazol-3-yl]amino]-benzenesulfonamide], the IC50 in assay [1] (setting [4]) worked out at 1.1 µM. `Nc1nc(Nc2ccc(S(N)(=O)=O)cc2)nn1C(=O)c1sccc1Cl` [Cpd 17, 4-[[5-amino-1-[(3-chloro-2-thienyl)carbonyl]-1H-1,2,4-triazol-3-yl]amino]-benzenesulfonamide]: the IC50 in assay [1] (setting [6]) is 4.13 µM.

As for `Nc1nc(Nc2ccc(S(N)(=O)=O)cc2)nn1C(=O)c1cccs1` [Cpd 14, 4-[[5-amino-1-(2-thienylcarbonyl)-1H-1,2,4-triazol-3-yl]amino]-benzenesulfonamide], in assay [1] (setting [6]), the IC50 is 1.92 µM.

For `Cc1cc(C)c(C(=O)n2nc(Nc3ccc(S(=O)(=O)Nc4ccccn4)cc3)nc2N)s1` [Cpd 120, 4-[[5-amino-1-[(3,5-dimethyl-2-thienyl)carbonyl]-1H-1,2,4-triazol-3-yl]amino]-N-(2-pyridinyl)-benzenesulfonamide], the IC50 was 1 µM in assay [2] (Table 1, read-out: HER2 IC50); 1 µM in assay [2] (setting [5]); above 10 µM in assay [1] (setting [4]).

Turning to `CCc1ccc(C(=O)n2nc(Nc3ccc(S(=O)(=O)NC)cc3)nc2N)s1` [Cpd 84, 4-[[5-amino-1-[(5-ethyl-2-thienyl)carbonyl]-1H-1,2,4-triazol-3-yl]amino]-N-methyl-benzenesulfonamide], the figures for the IC50 in assay [2] (setting [5]), in assay [3] and in assay [1] (setting [4]) were 0.052 µM, 0.043 µM and above 10 µM, respectively. For the compound `Cc1ccc(F)c(C(=O)n2nc(N)nc2Nc2ccc(S(N)(=O)=O)cc2)c1F` [Cpd 123, 4-[[3-amino-1-(2,6-difluoro-3-methylbenzoyl)-1H-1,2,4-triazol-5-yl]amino]-benzenesulfonamide], the IC50 is 5.52 µM in assay [3] and above 100 µM in assay [1] (setting [4]). Turning to `CN1CCN(c2ccc(Nc3nc(N)n(C(=O)c4c(F)cccc4F)n3)cc2)CC1` [Cpd 71, 1-(2,6-difluorobenzoyl)-N^3-[4-(4-methyl-1-piperazinyl)phenyl]-1H-1,2,4-triazole-3,5-diamine], in assay [1] (setting [4]), the IC50 was above 10 µM. Still for that read-out and setting: in the case of `Nc1nc(Nc2ccc(S(=O)(=O)Nc3ccccn3)cc2)nn1C(=O)c1c(F)cccc1F` [Cpd 118, 4-[[5-amino-1-(2,6-difluorobenzoyl)-1H-1,2,4-triazol-3-yl]amino]-N-(2-pyridinyl)-benzenesulfonamide] it was above 100 µM. As to `Nc1nc(Nc2ccc(S(N)(=O)=O)cc2)nn1C(=O)c1sccc1F` [Cpd 16, 4-[[5-amino-1-[(3-fluoro-2-thienyl)carbonyl]-1H-1,2,4-triazol-3-yl]amino]-benzenesulfonamide], in assay [1] (setting [6]), the IC50 is above 100 µM.

On to `Nc1nc(Nc2ccc(S(N)(=O)=O)cc2)nn1C(=O)c1c(F)cccc1Cl` [Cpd 70, 4-[[5-amino-1-(2-chloro-6-fluorobenzoyl)-1H-1,2,4-triazol-3-yl]amino]-benzenesulfonamide], for which the IC50 in assay [3] is 0.911 µM; in assay [1] (setting [4]), above 100 µM. As to `Cc1ccsc1C(=O)n1nc(Nc2ccc(S(=O)(=O)NCCN(C)C)cc2)nc1N` [Cpd 104, 4-[[5-amino-1-[(3-methyl-2-thienyl)carbonyl]-1H-1,2,4-triazol-3-yl]amino]-N-[2-(dimethylamino)ethyl]-benzenesulfonamide], the values for the IC50 in assay [2] (setting [5]), in assay [3] and in assay [1] (setting [4]) were 0.202 µM, 0.016 µM and above 10 µM, respectively.

As to `CCc1ccc(C(=O)n2nc(Nc3ccc(S(N)(=O)=O)cc3)nc2N)s1` [Cpd 32, 4-[[5-amino-1-[(5-ethyl-2-thienyl)carbonyl]-1H 1,2,4-triazol-3-yl]amino]-benzenesulfonamide], the IC50 in assay [1] (setting [6]) was above 100 µM.

As for `CCc1ccc(C(=O)n2nc(Nc3ccc(S(=O)(=O)NCCN(C)C)cc3)nc2N)s1` [Cpd 103, 4-[[5-amino-1-[(5-ethyl-2-thienyl)carbonyl]-1H-1,2,4-triazol-3-yl]amino]-N-[2-(dimethylamino)ethyl]-benzenesulfonamide], the IC50 in assay [1] (setting [4]) was above 10 µM.

These data come from patent EP1712550A2, “Substituted triazole diamine derivatives as kinase inhibitors” (priority 2000, dated 2002).
